Results taken from patent publication US12605364B2, “Methods of treating SARS-CoV-2 infections” (priority 2020, dated 2026).
In brackets after ≈: the same amount, converted by molar mass. Several values for one entry are separate records, joined by “and”; a condition that tells them apart may be missing. Equal values may be shown once.

System: SARS-CoV-2
Experiment: Virus neutralization (VN) assay, scoring of SARS-CoV-2 cytopathic effects (CPE) in Vero E6 cells
Assay type: cell-based

O=C1CN(/N=C/c2ccc(-c3ccc([N+](=O)[O-])cc3)o2)C(O)=N1 [dantrolene]
CPE observed: no CPE was observed | Day 4 Read (CPE in wells): 3/3 wells had No CPE and 2/3 wells had >90% and 1/3 wells had >90% and 3/3 wells had >90% and 3/3 wells had sparce | Day 6 Read (CPE in wells): 3/3 wells had No CPE and 2/3 wells had >90% and 1/3 wells had >90% and 3/3 wells had >90% and 3/3 wells had sparce | anti-viral activity: showed anti-viral activity | cytopathic effects (indicating virus growth): No cytopathic effects | MIC (Severe acute respiratory syndrome coronavirus 2, read-out: minimum inhibitory concentration): 20 µM (≈ 6.29 µg/mL)
